Reference: ChEMBL document CHEMBL1144377, “Oximinoarylsulfonamides as potent HIV protease inhibitors” (Bioorg Med Chem Lett, 2005)

Key:
[1] = tested on: Human immunodeficiency virus 1; test: Inhibitory concentration against wild type human immunodeficiency virus; format: functional, organism-based
[2] = tested on: Human immunodeficiency virus 1; test: Inhibitory concentration against resistant (A17) human immunodeficiency virus; format: functional, organism-based

Compound CC(=O)Nc1ccc(S(=O)(=O)N(CC(C)C)C[C@@H](O)[C@H](Cc2ccccc2)NC(=O)[C@H](C(C)C)N2CCN(Cc3csc(C)n3)C2=O)cc1 has an IC50 [1] of 0.312 µM and an IC50 [2] of 1.52 µM.

Compound Cc1nc(CN2CCN([C@H](C(=O)N[C@@H](Cc3ccccc3)[C@H](O)CN(CC(C)C)S(=O)(=O)c3ccc(C(=N)NO)cc3)C(C)C)C2=O)cs1 has an IC50 [1] of 0.143 µM and an IC50 [2] of 0.523 µM.

Compound Cc1nc(CN2CCN([C@H](C(=O)N[C@@H](Cc3ccccc3)[C@H](O)CN(CC(C)C)S(=O)(=O)c3ccc(C#N)cc3)C(C)C)C2=O)cs1 has an IC50 [1] of 0.148 µM and an IC50 [2] of 1.17 µM.

Compound C=Cc1ccc(S(=O)(=O)N(CC(C)C)C[C@@H](O)[C@H](Cc2ccccc2)NC(=O)[C@H](C(C)C)N2CCN(Cc3csc(C)n3)C2=O)cc1 has an IC50 [1] of 0.101 µM and an IC50 [2] of 0.957 µM.

In the case of Cc1nc(CN2CCN([C@H](C(=O)N[C@@H](Cc3ccccc3)[C@H](O)CN(CC(C)C)S(=O)(=O)c3ccc(/C=N\O)cc3)C(C)C)C2=O)cs1, the IC50 [1] is reported as 0.005 µM and the IC50 [2] is reported as 0.031 µM.

In the case of Cc1nc(CN2CCN([C@H](C(=O)N[C@@H](Cc3ccccc3)[C@H](O)CN(CC(C)C)S(=O)(=O)c3ccc(NS(C)(=O)=O)cc3)C(C)C)C2=O)cs1, the IC50 [1] is reported as 1.19 µM and the IC50 [2] is reported as 10 µM.

With Cc1nc(CN2CCN([C@H](C(=O)N[C@@H](Cc3ccccc3)[C@H](O)CN(CC(C)C)S(=O)(=O)c3ccc(N)cc3)C(C)C)C2=O)cs1 the IC50 [1] was 0.031 µM and the IC50 [2] was 0.311 µM.

Compound Cc1nc(CN2CCN([C@H](C(=O)N[C@@H](Cc3ccccc3)[C@H](O)CN(CC(C)C)S(=O)(=O)c3ccc(C(N)=O)cc3)C(C)C)C2=O)cs1 has an IC50 [1] of 0.254 µM and an IC50 [2] of 0.944 µM.

In the case of Cc1nc(CN2CCN([C@H](C(=O)N[C@@H](Cc3ccccc3)[C@H](O)CN(CC(C)C)S(=O)(=O)c3ccc(C(=O)O)cc3)C(C)C)C2=O)cs1, the IC50 [1] is reported as 10 µM and the IC50 [2] is reported as 9.44 µM.

For Cc1nc(CN2CCN([C@H](C(=O)N[C@@H](Cc3ccccc3)[C@H](O)CN(CC(C)C)S(=O)(=O)c3ccc(C=O)cc3)C(C)C)C2=O)cs1, the IC50 [1] was 0.051 µM and the IC50 [2] was 0.206 µM.

Cc1cccc(C)c1OCC(=O)N[C@@H](Cc1ccccc1)[C@@H](O)C[C@H](Cc1ccccc1)NC(=O)[C@H](C(C)C)N1CCCNC1=O [LOPINAVIR] was tested, and the IC50 [2] was 1.24 µM.

CC(=O)c1ccc(S(=O)(=O)N(CC(C)C)C[C@@H](O)[C@H](Cc2ccccc2)NC(=O)[C@H](C(C)C)N2CCN(Cc3csc(C)n3)C2=O)cc1 gave an IC50 [1] of 0.039 µM and an IC50 [2] of 0.68 µM.

For CC(C)CN(C[C@@H](O)[C@H](Cc1ccccc1)NC(=O)O[C@H]1CCOC1)S(=O)(=O)c1ccc(N)cc1, the IC50 [1] was 0.109 µM and the IC50 [2] was 3.72 µM.

For CC(C)c1nc(CN(C)C(=O)N[C@H](C(=O)N[C@@H](Cc2ccccc2)C[C@H](O)[C@H](Cc2ccccc2)NC(=O)OCc2cncs2)C(C)C)cs1 [RITONAVIR], the IC50 [2] was 3.44 µM.

CO/N=C\c1ccc(S(=O)(=O)N(CC(C)C)C[C@@H](O)[C@H](Cc2ccccc2)NC(=O)[C@H](C(C)C)N2CCN(Cc3csc(C)n3)C2=O)cc1 gave an IC50 [1] of 0.653 µM and an IC50 [2] of 3.01 µM.

In the case of Cc1nc(CN2CCN([C@H](C(=O)N[C@@H](Cc3ccccc3)[C@H](O)CN(CC(C)C)S(=O)(=O)c3ccc(CO)cc3)C(C)C)C2=O)cs1, the IC50 [1] is reported as 0.061 µM and the IC50 [2] is reported as 0.099 µM.

Compound Cc1nc(CN2CCN([C@H](C(=O)N[C@@H](Cc3ccccc3)[C@H](O)CN(CC(C)C)S(=O)(=O)c3cccc(CO)c3)C(C)C)C2=O)cs1 has an IC50 [1] of 0.045 µM and an IC50 [2] of 0.91 µM.

With Cc1nc(CN2CCN([C@H](C(=O)N[C@@H](Cc3ccccc3)[C@H](O)CN(CC(C)C)S(=O)(=O)c3ccc(NC=O)cc3)C(C)C)C2=O)cs1 the IC50 [1] was 0.168 µM and the IC50 [2] was 2.41 µM.

Compound Cc1nc(CN2CCN([C@H](C(=O)N[C@@H](Cc3ccccc3)[C@H](O)CN(CC(C)C)S(=O)(=O)c3cccc(/C=N\O)c3)C(C)C)C2=O)cs1 has an IC50 [1] of 0.016 µM and an IC50 [2] of 0.222 µM.
